According to patent publication US4091211A, “Cephalosporins” (Hoffmann-La Roche Inc., priority 1974, dated 1978):
Structures can show the parent of a compound that is named as a salt.

Assays:
[1] = acute toxicity (LD50 i.v. in the mouse); conditions: in vivo, iv
[2] = system: Staphylococcus aureus Schoch (Penicillin-sensitive); assay: antimicrobial activity, CD50 in the mouse upon subcutaneous injection, Staphylococcus aureus Schoch; format: in vivo
Excerpt: (§1) The results represent CD50 values in the mouse upon subcutaneous injection. In the table, compound A is (7R)-3- [[(1,4,5,6-tetrahydro-4-ethyl-5,6-dioxo-as-triazin-3-yl)-thio]methyl]-7-[2-(5-oxo-1,2,3-oxadiazolidin-3-yl)-acetamido]-3-cephem-4-carboxylic acid sodium salt and compound B is (7R)-3- [[(1,4,5,6-tetrahydro-4-ethyl-5,6-dioxo-as-triazin-3-yl)-thio]methyl]-7-[2(1-H-tetrazol-1-yl)-acetamido]-3-cephem-4-carboxylic acid sodium salt.

[3] = system: Escherichia coli 1346; assay: antimicrobial activity, CD50 in the mouse upon subcutaneous injection, Escherichia coli 1346; format: in vivo
Excerpt: as §1

[4] = system: Staphylococcus aureus 887 (Penicillin-sensitive); assay: antimicrobial activity, CD50 in the mouse upon subcutaneous injection, Staphylococcus aureus 887; format: in vivo
Excerpt: as §1

SMILES | LD50 ([1]; i.v. in the mouse, acute toxicity) | CD50 [2] | CD50 [3] | CD50 [4] | LD50 ([1]; mouse)
CCn1c(SCC2=C(C(=O)O)N3C(=O)[C@@H](NC(=O)C[n+]4cc([O-])on4)[C@H]3SC2)n[nH]c(=O)c1=O [A, sodium salt] | 2000 to 4000 mg/kg | 0.25 mg/kg | 0.38 mg/kg | 5.5 mg/kg | –
CCn1c(SCC2=C(C(=O)O)N3C(=O)[C@@H](NC(=O)Cn4cnnn4)[C@H]3SC2)n[nH]c(=O)c1=O [B, (7R)-3-[[(1,4,5,6-tetrahydro-4-ethyl-5,6-dioxo-as-triazin-3-yl)-thio]methyl]-7-[2(1-H-tetrazol-1-yl)-acetamido]-3-cephem-4-carboxylic acid sodium salt] | – | 0.6 mg/kg | 0.9 mg/kg | 3.2 mg/kg | 1000 to 2000 mg/kg
